Like-named read-outs stand apart in the source and are kept apart here.
Columns and labels:
[1] = humans; phase 1 clinical studies; cited from earlier work
[2] = test system: E.G7 targets (lysis by CD8 T cells / CTLs); test: in vitro cytotoxicity of CTLs against OVA expressing E.G7 thymoma cells; type: cell-based, mouse; conditions: C57BL/6 CTLs; relative to Inh1; FIG. 12C
Source text: FIG. 5A Illustrates that pharmacological inhibition of TCPTP and PTP1B results in enhanced cytotoxicity and effector differentiation. CD8 T cells from OT-1 mice were activated/expanded by αCD3/αCD28 antibodies and IL-2 in the presence of different concentrations of TCPTP/PTP1B inhibitor (Inh1) for 5 days. Specific cytotoxicity against OVA expressing E.G7 thymoma cells was measure.
FIG. 12C illustrates the specific cytotoxicity against OVA expressing E.G7 thymoma cells from 5-day C57BL/6 CTLs treated with Inh1 or Inh2 at the concentrations specified. (one of three experiments shown).
To understand the functional capabilities of the CD8 T cells with combined deficiency of TCPTP and PTP1B, the conditional mutant mice of Example 1 were bred with OT-1 transgenic mice. […] Effector CD8 T cells also contribute to the immune response by the secretion of cytokines as IFN-γ, consequently the presence of this cytokine in the supernatant of target cell stimulated CTLs by ELISA was measured. An increase of the secretion of IFN-γ was detected in TCPTP and PTP1B single deficient cells at low effector to target ratios which was more stepped in the […] cells (FIG. 3C). […]
As the differentiation state of CD8 T cells was altered in the various genotypes analyzed before, how treatment with Inh1 altered the expression of differentiation markers was determined by flow cytometric analysis (FIGS. 5D and 5E). […]

[3] = mice; cited from earlier work

N#CCc1ccc2cc(Br)c(C(F)(F)P(=O)(O)O)cc2c1 [Inh2]
systemic tolerability [1]: tolerated systemically | concentration inducing similar biological activity to Inh1 [2]: 5 times lower | systemic tolerability [3]: tolerated systemically
